One test concerns HTT mRNA. Kind of test: Splicing RT-qPCR assay, HTT canonical (CJ) and alternative (AJ) junction mRNA. It is filed as cell-based. Conditions: Homo sapiens, A673 or K562 cells, 24 hours; for IC50: decrease in canonical junction mRNA; for AC50: increase in alternative junction mRNA. In short, it runs like this: (§1)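 Housekeeping-normalized RT-qPCR of canonical and alternative junctions in lysates of A673 or K562 cells exposed 24 h to compound (11 points, 3-fold steps, max 10 uM).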
(In general: In qPCR the cycle at which signal appears reflects the starting amount.)

The subject of another test is MYB mRNA. Kind of test: Splicing RT-qPCR assay, MYB canonical (CJ) and alternative (AJ) junction mRNA. In kind it is cell-based. The conditions noted are these: Homo sapiens, A673 or K562 cells, 24 hours; for IC50: decrease in canonical junction mRNA; for AC50: increase in alternative junction mRNA. In short, it runs like this: as §1

What is called IC50 is the concentration that gives 50% inhibition. High values mean a need for much substance, low ones inhibition by little substance. As a reminder, the AC50 is the concentration giving half of the maximal activity seen. Read a high AC50 as weaker potency.

Turning to `Cc1cn2cc(NC(=O)c3ccc([C@@]45CCNCC4C5)c4nccnc34)cc(F)c2n1` (stereo in doubt) [Compound 248, 8-{3-azabicyclo[4.1.0]heptan-6-yl}-N-{8-fluoro-2-methylimidazo[1,2-a]pyridin-6-yl}quinoxaline-5-carboxamide 2,2,2-trifluoroacetate], in the test on HTT mRNA, the IC50 was 1 to 10 µM and the AC50 was over 10 µM. In addition, in the test on MYB mRNA, the IC50 is 0.1 to 1 µM and the AC50 lay within 0.1 to 1 µM.
Consider `Cc1cn2cc(NC(=O)c3ccc(N4CCNCC4)c4nccnc34)cc(F)c2n1` [Compound 111], for which, in the test on HTT mRNA, the IC50 lay in the range of 1 to 10 µM and the AC50 was 1 to 10 µM. In the test with MYB mRNA, this molecule registered an IC50 of 0.1 to 1 µM and an AC50 of 0.1 to 1 µM.
For the molecule `Cc1cn2nc(NC(=O)c3ccc(C4CCNCC4)c4ccnnc34)cc(C)c2n1` [Compound 113], the half-inhibitory concentration (IC50) in the test with HTT mRNA and in the test on MYB mRNA was 1 to 10 µM throughout. For the same molecule, the AC50 fell in the range of 1 to 10 µM in the test with HTT mRNA and 0.1 to 1 µM in the test with MYB mRNA.
On to `Cn1cc2ccc(NC(=O)c3ccc(N4CCNCC4)c4ccnnc34)cc2n1` [Compound 115], for which, in the test on HTT mRNA, the IC50 was over 10 µM and the AC50 was over 10 µM. In the test on MYB mRNA, this molecule returned an IC50 of over 10 µM and an AC50 of over 10 µM.
Turning to `Cn1cc2c(F)cc(NC(=O)c3ccc(N4CCNCC4)c4ccnnc34)cc2n1` [Compound 116], the 50% inhibitory concentration (IC50) with HTT mRNA and in the test with MYB mRNA was over 10 µM in each case. For the same molecule, the AC50 in the test on HTT mRNA and in the test on MYB mRNA was over 10 µM in each case.
Consider `Cc1nc2c(F)cc(NC(=O)c3ccc(N4CCNCC4)c4ccnnc34)cc2s1` [Compound 118], for which, in the test with HTT mRNA, the IC50 is 0.1 to 1 µM and the AC50 lay within 0.1 to 1 µM. In the test with MYB mRNA, the IC50 lay within 0.1 to 1 µM and the AC50 lay in the range of 0.1 to 1 µM.
Turning to `Cc1cn2cc(NC(=O)c3ccc(N4CCNCC4)c4ccnnc34)c(C)cc2n1` [Compound 119], the IC50 in the test on HTT mRNA and in the test on MYB mRNA was 1 to 10 µM in each case. Further, the half-maximal activity concentration (AC50) in the test on HTT mRNA and with MYB mRNA was 1 to 10 µM each time.
In the test on HTT mRNA, `Cc1cn2cc(NC(=O)c3ccc(N4CCNCC4)c4ccnnc34)ncc2n1` [Compound 120] showed an IC50 of over 10 µM and an AC50 of over 10 µM. In the test with MYB mRNA, this molecule showed a concentration for half-maximal inhibition (IC50) of 0.1 to 1 µM and an AC50 of 0.1 to 1 µM.
With `CNC1CCN(c2ccc(C(=O)Nc3cc(F)c4nc(C)cn4c3)c3nc(OCCOC)ccc23)C1` (stereo not drawn) [Compound 234], in the test with HTT mRNA, the half-maximal inhibitory concentration (IC50) was 1 to 10 µM and the AC50 lay in the range of 1 to 10 µM. In addition, in the test with MYB mRNA, the IC50 was in the range of 0.1 to 1 µM and the AC50 fell in the range of 0.1 to 1 µM.
As to `CN[C@@H]1CCN(c2ccc(C(=O)Nc3cc(F)c4nc(C)cn4c3)c3nnccc23)C1` [Compound 238, (R)—N-(8-fluoro-2-methylimidazo[1,2-a]pyridin-6-yl)-5-(3-(methylamino)pyrrolidin-1-yl)cinnoline-8-carboxamide], the IC50 in the test on HTT mRNA was 1 to 10 µM; in the test with MYB mRNA, under 0.1 µM. Also, the AC50 in the test on HTT mRNA was 1 to 10 µM; in the test with MYB mRNA, under 0.1 µM.
With `CN[C@H]1CCN(c2ccc(C(=O)Nc3cc(F)c4nc(C)cn4c3)c3nnccc23)C1` [Compound 239, (S)—N-(8-fluoro-2-methylimidazo[1,2-a]pyridin-6-yl)-5-(3-(methylamino)pyrrolidin-1-yl)cinnoline-8-carboxamide], in the test with HTT mRNA, the IC50 lay in the range of 1 to 10 µM and the AC50 was in the range of 1 to 10 µM. In the test on MYB mRNA, the IC50 was under 0.1 µM and the AC50 was in the range of 0.1 to 1 µM.
In the test on HTT mRNA, `Cc1cn2cc(NC(=O)c3ccc(C4=CCNCC4)c4nccnc34)cc(F)c2n1` [Compound 240, N-{8-fluoro-2-methylimidazo[1,2-a]pyridin-6-yl}-8-(1,2,3,6-tetrahydropyridin-4-yl)quinoxaline-5-carboxamide] returned an IC50 of under 0.1 µM and a half-maximal activity concentration (AC50) of 0.1 to 1 µM. In the test with MYB mRNA, this molecule registered an IC50 of under 0.1 µM and an AC50 of 0.1 to 1 µM.
In the test with HTT mRNA, `Cc1cn2cc(NC(=O)c3ccc(N4CC[C@@H](N(C)C)C4)c4nccnc34)cc(F)c2n1` [Compound 242, 8-[(3R)-3-(dimethylamino)pyrrolidin-1-yl]-N-{8-fluoro-2-methylimidazo[1,2-a]pyridin-6-yl}quinoxaline-5-carboxamide] had an IC50 of over 10 µM and an AC50 of over 10 µM. In the test on MYB mRNA, this molecule returned an IC50 of 0.1 to 1 µM and an AC50 of 1 to 10 µM.
`COc1cnc2c(N3CC[C@@H](N(C)C)C3)ccc(C(=O)Nc3cc(F)c4nc(C)cn4c3)c2n1` [Compound 244, 8-[(3R)-3-(dimethylamino)pyrrolidin-1-yl]-N-{8-fluoro-2-methylimidazo[1,2-a]pyridin-6-yl}-3-methoxyquinoxaline-5-carboxamide]: in the test on HTT mRNA, the IC50 was 0.1 to 1 µM and the AC50 lay within 0.1 to 1 µM. In the test on MYB mRNA, this molecule displayed an IC50 of under 0.1 µM and an AC50 of under 0.1 µM.
Consider `Cc1cn2cc(NC(=O)c3ccc([C@H]4CCNC4)c4nccnc34)cc(F)c2n1` [Compound 246], for which the results for the 50% inhibitory concentration (IC50) in the test on HTT mRNA and with MYB mRNA were 1 to 10 µM and 0.1 to 1 µM, respectively. Further, the AC50 lay within 1 to 10 µM in the test with HTT mRNA and 0.1 to 1 µM in the test on MYB mRNA.
For `Cc1cn2cc(NC(=O)c3ccc(N4CCN[C@@H](C(C)C)C4)c4nccnc34)cc(F)c2n1` [Compound 250, N-{8-fluoro-2-methylimidazo[1,2-a]pyridin-6-yl}-8-[(3S)-3-isopropylpiperazin-1-yl]quinoxaline-5-carboxamide], in the test on HTT mRNA, the IC50 was over 10 µM and the AC50 is over 10 µM. In the test with MYB mRNA, this molecule came in with an IC50 of 0.1 to 1 µM and an AC50 of 1 to 10 µM.
As for `Cc1cn2cc(NC(=O)c3ccc(N4CCN[C@@H](C5CC5)C4)c4nccnc34)cc(F)c2n1` [Compound 252, 8-[(3S)-3-cyclopropylpiperazin-1-yl]-N-{8-fluoro-2-methylimidazo[1,2-a]pyridin-6-yl}quinoxaline-5-carboxamide], the results for the IC50 with HTT mRNA and in the test on MYB mRNA were over 10 µM and 0.1 to 1 µM, respectively. Besides, the AC50 was over 10 µM with HTT mRNA and 0.1 to 1 µM in the test on MYB mRNA.
In the case of `Cc1cn2cc(NC(=O)c3ccc(N4CCN[C@H](C5CC5)C4)c4nccnc34)cc(F)c2n1` [Compound 253, 8-[(3R)-3-cyclopropylpiperazin-1-yl]-N-{8-fluoro-2-methylimidazo[1,2-a]pyridin-6-yl}quinoxaline-5-carboxamide], in the test with HTT mRNA, the half-maximal inhibitory concentration (IC50) was in the range of 1 to 10 µM and the AC50 lay in the range of 1 to 10 µM. In the test on MYB mRNA, this molecule yielded an IC50 of under 0.1 µM and an AC50 of under 0.1 µM.
As for `Cc1cn2cc(NC(=O)c3ccc(N4CCN5CCOC[C@@H]5C4)c4nccnc34)cc(F)c2n1` [Compound 255, (S)—N-(8-fluoro-2-methylimidazo[1,2-a]pyridin-6-yl)-8-(hexahydropyrazino[2,1-c][1,4]oxazin-8(1H)-yl)quinoxaline-5-carboxamide], in the test with HTT mRNA, the concentration for half-maximal inhibition (IC50) lay within 0.1 to 1 µM and the half-maximal activity concentration (AC50) is 0.1 to 1 µM. In the test on MYB mRNA, this molecule yielded a 50% inhibitory concentration (IC50) of 0.1 to 1 µM and an AC50 of 0.1 to 1 µM.
As to `Cc1cn2cc(NC(=O)c3ccc(N4CCN5CCOC[C@H]5C4)c4nccnc34)cc(F)c2n1` [Compound 256, (R)—N-(8-fluoro-2-methylimidazo[1,2-a]pyridin-6-yl)-8-(hexahydropyrazino[2,1-c][1,4]oxazin-8(1H)-yl)quinoxaline-5-carboxamide], in the test with HTT mRNA, the IC50 fell in the range of 1 to 10 µM and the half-maximal activity concentration (AC50) lay within 1 to 10 µM. In addition, in the test with MYB mRNA, the IC50 fell in the range of 1 to 10 µM and the AC50 was in the range of 1 to 10 µM.
In the test with HTT mRNA, `Cc1cn2cc(NC(=O)c3ccc(N4CC(C)NC(C)C4)c4nc(C)c(C)nc34)cc(F)c2n1` (stereo not drawn) [Compound 257] yielded an IC50 of 1 to 10 µM and an AC50 of 1 to 10 µM. In the test on MYB mRNA, this molecule returned a 50% inhibitory concentration (IC50) of 0.1 to 1 µM and an AC50 of 1 to 10 µM.

Values taken from patent publication US20240409536A1, “COMPOUNDS AND METHODS FOR MODULATING SPLICING” (REMIX THERAPEUTICS INC., priority 2021, published 2024).
